The values below are quoted from earlier work in patent publication US20220287347A1, “PEPTIDES FOR TREATING MUSCLE ATROPHY” (NURITAS LIMITED, priority 2019, published 2022).

Usually fraction unbound stands for the share of the substance not bound to proteins or other matrix.

The conditions of data set [1]: binding to lipoproteins.

`NC(=O)CC[C@@H]1NC(=O)[C@H](Cc2ccccc2)NC(=O)[C@H](Cc2ccc(O)cc2)NC(=O)[C@@H](N)CSSC[C@@H](C(=O)N2CCC[C@H]2C(=O)N[C@@H](CCCN=C(N)N)C(=O)NCC(N)=O)NC(=O)[C@H](CC(N)=O)NC1=O` [vasopressin]: the half-life in humans was 10 to 35 min.
For `C[C@@H](O)[C@@H]1NC(=O)[C@H](CCCCN)NC(=O)[C@@H](Cc2c[nH]c3ccccc23)NC(=O)[C@H](Cc2ccccc2)NC(=O)[C@@H](NC(=O)[C@H](N)Cc2ccccc2)CSSC[C@@H](C(=O)N[C@H](CO)[C@@H](C)O)NC1=O` [octreotide], the half-life in humans result is “about 100 min”. In addition, the free fraction (fraction unbound) in data set [1] is 0.65.
